Patent US20240261305A1 (priority 2021, published 2024)

Experiments:
[1] = in vivo; settings: mouse, po, mice
[2] = after oral administration; cited from earlier work
[3] = in vivo; settings: rat, po, rats
[4] = Stability of CBD at room temperature and in the dark; type: physicochemical; settings: room temperature; for degradation of CBD: 3 months
[5] = kinetic detection (oral bioavailability), sesame oil alone
[6] = oral bioavailability, administered as an unformulated oil extract
[7] = oral bioavailability, formulated (mixture of sesame oil, amaranth oil and squalene)

Compound `C=C(C)[C@@H]1CCC(C)=C[C@H]1c1c(O)cc(CCCCC)cc1O` [CBD, cannabidiol] has a bioavailability [1, 5] of 25 to 30%, a bioavailability [1, 6] of 5 to 6% and a bioavailability [1, 7] of roughly 50%. For the same compound, the “time to reach peak plasma concentration” value [2] was 1 to 4 h, the bioavailability [3, 5] was 25 to 30% and the bioavailability [3, 6] was 5 to 6%. The bioavailability [3, 7] was roughly 60%, the “degradation of CBD” value ([4]; CBD from ethanolic cannabis extract formulated in a mixture of sesame oil, amaranth and squalene (at least 0.1%)) was 3% and the “degradation of CBD” value ([4]; CBD in products obtained by ethanolic extraction from cannabis) was 8%. The “degradation of CBD” value ([4]; CBD in pure form (both amorphous and crystalline)) was 11%, the “degradation of CBD” value ([4]; pure CBD formulated in a mixture of sesame oil, amaranth and squalene (at least 0.1%)) was 4% and the “instability compared with unformulated CBD” value ([4]; CBD solubilised in sesame oil or amaranth oil or in squalene alone) was “did not show a statistically significant difference”.
